The text below walks through data of patent publication US20240246942A1, “KINASE INHIBITORS FOR THE TREATMENT OF NEURODEGENERATIVE DISEASES” (priority 2020, published 2024).

Test in all cases: biochemical
The target of assay [1] is T1, panel of 374 wild-type kinases (Homo sapiens, UniProt P06493).
T1 construct: purchased Reaction Biology Corporation

In assay [2] the target is T2, panel of 374 wild-type kinases (Homo sapiens, UniProt P45985).
T2 construct: purchased Reaction Biology Corporation
T2 sequence (P45985 1-399): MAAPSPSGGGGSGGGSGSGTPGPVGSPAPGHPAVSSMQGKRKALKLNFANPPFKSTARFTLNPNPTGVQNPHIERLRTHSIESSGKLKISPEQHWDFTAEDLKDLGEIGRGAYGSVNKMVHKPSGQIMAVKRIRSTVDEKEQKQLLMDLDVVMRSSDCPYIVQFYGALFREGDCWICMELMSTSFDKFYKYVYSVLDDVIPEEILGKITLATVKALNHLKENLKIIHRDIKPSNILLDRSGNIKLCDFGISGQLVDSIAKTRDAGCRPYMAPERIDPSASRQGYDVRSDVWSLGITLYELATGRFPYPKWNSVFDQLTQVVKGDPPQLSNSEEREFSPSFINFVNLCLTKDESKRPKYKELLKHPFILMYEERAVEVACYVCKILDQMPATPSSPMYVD
The note with it: read-out: % Enzyme Activity (relative to DMSO controls), MKK4.

Assay [3] deals with T3, panel of 374 wild-type kinases (Homo sapiens, UniProt Q9P1W9).
T3 construct: purchased Reaction Biology Corporation
T3 sequence (Q9P1W9 whole entry): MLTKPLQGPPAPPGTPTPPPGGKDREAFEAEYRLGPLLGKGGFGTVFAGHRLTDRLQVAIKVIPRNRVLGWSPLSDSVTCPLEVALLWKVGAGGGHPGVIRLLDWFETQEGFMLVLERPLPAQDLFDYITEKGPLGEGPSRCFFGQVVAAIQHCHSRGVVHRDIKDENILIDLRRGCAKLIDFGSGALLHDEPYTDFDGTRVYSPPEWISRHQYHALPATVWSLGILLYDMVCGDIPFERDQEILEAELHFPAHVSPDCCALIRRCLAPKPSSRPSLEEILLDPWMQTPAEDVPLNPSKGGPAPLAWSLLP
The note with it: read-out: % Enzyme Activity (relative to DMSO controls), kinase PIM2.

The target of assay [4] is T4, panel of 374 wild-type kinases (Homo sapiens, UniProt Q9UL54).
T4 construct: purchased Reaction Biology Corporation
T4 sequence (Q9UL54 1-1235): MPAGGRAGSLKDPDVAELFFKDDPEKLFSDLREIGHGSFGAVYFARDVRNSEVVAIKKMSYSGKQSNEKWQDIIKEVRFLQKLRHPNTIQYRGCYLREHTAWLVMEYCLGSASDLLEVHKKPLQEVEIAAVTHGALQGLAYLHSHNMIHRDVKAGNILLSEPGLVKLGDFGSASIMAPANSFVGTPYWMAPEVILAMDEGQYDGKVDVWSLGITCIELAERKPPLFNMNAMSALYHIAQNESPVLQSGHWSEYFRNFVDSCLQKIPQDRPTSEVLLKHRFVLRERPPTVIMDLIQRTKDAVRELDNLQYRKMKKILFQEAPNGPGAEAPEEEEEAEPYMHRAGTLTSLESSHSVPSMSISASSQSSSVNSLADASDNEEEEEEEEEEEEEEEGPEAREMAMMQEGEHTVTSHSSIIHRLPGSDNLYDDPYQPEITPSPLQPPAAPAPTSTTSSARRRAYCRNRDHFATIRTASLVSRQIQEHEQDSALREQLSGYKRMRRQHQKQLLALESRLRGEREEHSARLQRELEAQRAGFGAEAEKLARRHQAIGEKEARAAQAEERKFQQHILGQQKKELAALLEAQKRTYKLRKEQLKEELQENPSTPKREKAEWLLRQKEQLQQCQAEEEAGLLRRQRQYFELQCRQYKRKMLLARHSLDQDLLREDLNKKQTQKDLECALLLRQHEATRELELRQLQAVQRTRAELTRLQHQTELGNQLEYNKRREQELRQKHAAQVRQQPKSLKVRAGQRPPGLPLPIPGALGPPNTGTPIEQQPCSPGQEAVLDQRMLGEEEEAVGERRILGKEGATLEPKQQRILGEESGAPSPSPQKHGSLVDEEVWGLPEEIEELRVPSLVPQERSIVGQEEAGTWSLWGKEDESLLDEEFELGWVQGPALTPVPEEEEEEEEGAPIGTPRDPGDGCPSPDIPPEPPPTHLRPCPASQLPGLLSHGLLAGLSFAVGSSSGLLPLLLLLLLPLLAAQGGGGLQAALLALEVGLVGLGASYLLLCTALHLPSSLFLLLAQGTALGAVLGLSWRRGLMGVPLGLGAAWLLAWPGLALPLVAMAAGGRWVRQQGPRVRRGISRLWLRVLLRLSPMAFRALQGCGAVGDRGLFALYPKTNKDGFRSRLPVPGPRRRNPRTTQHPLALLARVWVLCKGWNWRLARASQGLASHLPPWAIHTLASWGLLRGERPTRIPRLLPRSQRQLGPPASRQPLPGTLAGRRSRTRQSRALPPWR
The note with it: read-out: % Enzyme Activity (relative to DMSO controls), kinase TAOK2/TAO1.

Assay [5] deals with T5, panel of 374 wild-type kinases (Homo sapiens, UniProt P07332).
T5 construct: purchased Reaction Biology Corporation
T5 sequence (P07332 whole entry): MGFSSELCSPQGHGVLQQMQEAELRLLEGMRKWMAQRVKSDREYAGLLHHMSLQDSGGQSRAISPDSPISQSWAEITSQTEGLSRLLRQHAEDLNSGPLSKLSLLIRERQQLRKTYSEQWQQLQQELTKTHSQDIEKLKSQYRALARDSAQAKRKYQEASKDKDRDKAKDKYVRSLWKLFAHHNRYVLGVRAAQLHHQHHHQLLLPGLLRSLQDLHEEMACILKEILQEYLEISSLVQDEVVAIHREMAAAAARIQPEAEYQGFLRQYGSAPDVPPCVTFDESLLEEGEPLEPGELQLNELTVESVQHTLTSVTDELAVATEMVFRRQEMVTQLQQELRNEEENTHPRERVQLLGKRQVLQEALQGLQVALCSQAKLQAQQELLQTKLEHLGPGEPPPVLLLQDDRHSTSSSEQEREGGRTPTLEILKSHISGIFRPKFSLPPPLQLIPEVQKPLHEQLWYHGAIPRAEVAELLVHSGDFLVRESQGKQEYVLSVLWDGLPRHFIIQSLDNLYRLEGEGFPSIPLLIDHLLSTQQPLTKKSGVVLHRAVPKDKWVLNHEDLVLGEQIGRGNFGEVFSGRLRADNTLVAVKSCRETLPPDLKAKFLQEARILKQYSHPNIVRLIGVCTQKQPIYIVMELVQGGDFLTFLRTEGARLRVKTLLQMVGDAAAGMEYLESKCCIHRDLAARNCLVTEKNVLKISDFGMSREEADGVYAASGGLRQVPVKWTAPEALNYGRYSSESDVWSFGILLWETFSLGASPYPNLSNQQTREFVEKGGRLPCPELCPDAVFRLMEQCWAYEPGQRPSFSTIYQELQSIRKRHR
The note with it: read-out: % Enzyme Activity (relative to DMSO controls), FES/FPS.

The target in assay [6] is T6, panel of 374 wild-type kinases (Homo sapiens, UniProt Q02779).
T6 construct: purchased Reaction Biology Corporation
T6 sequence (Q02779 whole entry): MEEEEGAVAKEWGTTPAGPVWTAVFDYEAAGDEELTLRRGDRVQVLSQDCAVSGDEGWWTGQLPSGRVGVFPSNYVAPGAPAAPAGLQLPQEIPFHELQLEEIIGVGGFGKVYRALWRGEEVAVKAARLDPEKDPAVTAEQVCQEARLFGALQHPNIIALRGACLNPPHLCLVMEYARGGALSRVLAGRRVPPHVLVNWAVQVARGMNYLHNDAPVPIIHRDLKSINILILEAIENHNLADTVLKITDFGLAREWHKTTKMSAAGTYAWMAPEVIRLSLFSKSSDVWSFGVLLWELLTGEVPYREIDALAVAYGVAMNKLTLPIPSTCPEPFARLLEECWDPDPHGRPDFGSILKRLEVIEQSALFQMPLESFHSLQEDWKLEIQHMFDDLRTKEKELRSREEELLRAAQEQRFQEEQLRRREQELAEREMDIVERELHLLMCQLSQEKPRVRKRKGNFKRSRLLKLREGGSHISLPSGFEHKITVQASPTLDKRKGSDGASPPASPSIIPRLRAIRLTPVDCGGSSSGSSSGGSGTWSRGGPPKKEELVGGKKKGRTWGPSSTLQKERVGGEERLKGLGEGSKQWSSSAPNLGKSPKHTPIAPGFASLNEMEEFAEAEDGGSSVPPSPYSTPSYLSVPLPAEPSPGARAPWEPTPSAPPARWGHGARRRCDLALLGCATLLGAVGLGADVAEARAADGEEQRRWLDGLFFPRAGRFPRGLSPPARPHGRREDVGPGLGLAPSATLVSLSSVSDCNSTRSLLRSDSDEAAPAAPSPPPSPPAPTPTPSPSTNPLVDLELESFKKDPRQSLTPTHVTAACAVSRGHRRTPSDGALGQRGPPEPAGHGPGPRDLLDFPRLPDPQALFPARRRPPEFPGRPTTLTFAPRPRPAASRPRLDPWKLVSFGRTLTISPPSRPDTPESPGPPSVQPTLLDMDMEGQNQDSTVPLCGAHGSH
The note with it: read-out: % Enzyme Activity (relative to DMSO controls), MLK2/MAP3K10.

Assay [7] has as its target T7, panel of 374 wild-type kinases (Homo sapiens, UniProt Q9Y5S2).
T7 construct: purchased Reaction Biology Corporation
The note with it: read-out: % Enzyme Activity (relative to DMSO controls), MRCKb/CDC42BPB.

Assay [8] has as its target T8, panel of 374 wild-type kinases (Homo sapiens, UniProt P19784).
T8 construct: purchased Reaction Biology Corporation
The note with it: CK2a2, read-out: % Enzyme Activity (relative to DMSO controls).

Assay [9] has as its target T9, panel of 374 wild-type kinases (Homo sapiens, UniProt Q13882).
T9 construct: purchased Reaction Biology Corporation
The note with it: read-out: % Enzyme Activity (relative to DMSO controls), BRK.

Assay [10] concerns the target T10, panel of 374 wild-type kinases (Homo sapiens, UniProt Q15349).
T10 construct: purchased Reaction Biology Corporation
The note with it: read-out: % Enzyme Activity (relative to DMSO controls), kinase RSK3.

For assay [11], the target named is T11, panel of 374 wild-type kinases (Homo sapiens, UniProt P04629).
T11 construct: purchased Reaction Biology Corporation
The note with it: read-out: % Enzyme Activity (relative to DMSO controls), kinase TRKA.

Assay [12] addresses T12, panel of 374 wild-type kinases (Homo sapiens, UniProt P36507).
T12 construct: purchased Reaction Biology Corporation
The note with it: read-out: % Enzyme Activity (relative to DMSO controls), MEK2.

[13] abbreviates: read-out: % Enzyme Activity (relative to DMSO controls), CDK1/cyclin A.
Setting [14] is: read-out: % Enzyme Activity (relative to DMSO controls), CDK1/cyclin B.
Where [15] appears, read: read-out: % Enzyme Activity (relative to DMSO controls), CDK1/cyclin E.

Read-outs that look alike come from different tables or passages of the source.

T7 sequence (Q9Y5S2 whole entry): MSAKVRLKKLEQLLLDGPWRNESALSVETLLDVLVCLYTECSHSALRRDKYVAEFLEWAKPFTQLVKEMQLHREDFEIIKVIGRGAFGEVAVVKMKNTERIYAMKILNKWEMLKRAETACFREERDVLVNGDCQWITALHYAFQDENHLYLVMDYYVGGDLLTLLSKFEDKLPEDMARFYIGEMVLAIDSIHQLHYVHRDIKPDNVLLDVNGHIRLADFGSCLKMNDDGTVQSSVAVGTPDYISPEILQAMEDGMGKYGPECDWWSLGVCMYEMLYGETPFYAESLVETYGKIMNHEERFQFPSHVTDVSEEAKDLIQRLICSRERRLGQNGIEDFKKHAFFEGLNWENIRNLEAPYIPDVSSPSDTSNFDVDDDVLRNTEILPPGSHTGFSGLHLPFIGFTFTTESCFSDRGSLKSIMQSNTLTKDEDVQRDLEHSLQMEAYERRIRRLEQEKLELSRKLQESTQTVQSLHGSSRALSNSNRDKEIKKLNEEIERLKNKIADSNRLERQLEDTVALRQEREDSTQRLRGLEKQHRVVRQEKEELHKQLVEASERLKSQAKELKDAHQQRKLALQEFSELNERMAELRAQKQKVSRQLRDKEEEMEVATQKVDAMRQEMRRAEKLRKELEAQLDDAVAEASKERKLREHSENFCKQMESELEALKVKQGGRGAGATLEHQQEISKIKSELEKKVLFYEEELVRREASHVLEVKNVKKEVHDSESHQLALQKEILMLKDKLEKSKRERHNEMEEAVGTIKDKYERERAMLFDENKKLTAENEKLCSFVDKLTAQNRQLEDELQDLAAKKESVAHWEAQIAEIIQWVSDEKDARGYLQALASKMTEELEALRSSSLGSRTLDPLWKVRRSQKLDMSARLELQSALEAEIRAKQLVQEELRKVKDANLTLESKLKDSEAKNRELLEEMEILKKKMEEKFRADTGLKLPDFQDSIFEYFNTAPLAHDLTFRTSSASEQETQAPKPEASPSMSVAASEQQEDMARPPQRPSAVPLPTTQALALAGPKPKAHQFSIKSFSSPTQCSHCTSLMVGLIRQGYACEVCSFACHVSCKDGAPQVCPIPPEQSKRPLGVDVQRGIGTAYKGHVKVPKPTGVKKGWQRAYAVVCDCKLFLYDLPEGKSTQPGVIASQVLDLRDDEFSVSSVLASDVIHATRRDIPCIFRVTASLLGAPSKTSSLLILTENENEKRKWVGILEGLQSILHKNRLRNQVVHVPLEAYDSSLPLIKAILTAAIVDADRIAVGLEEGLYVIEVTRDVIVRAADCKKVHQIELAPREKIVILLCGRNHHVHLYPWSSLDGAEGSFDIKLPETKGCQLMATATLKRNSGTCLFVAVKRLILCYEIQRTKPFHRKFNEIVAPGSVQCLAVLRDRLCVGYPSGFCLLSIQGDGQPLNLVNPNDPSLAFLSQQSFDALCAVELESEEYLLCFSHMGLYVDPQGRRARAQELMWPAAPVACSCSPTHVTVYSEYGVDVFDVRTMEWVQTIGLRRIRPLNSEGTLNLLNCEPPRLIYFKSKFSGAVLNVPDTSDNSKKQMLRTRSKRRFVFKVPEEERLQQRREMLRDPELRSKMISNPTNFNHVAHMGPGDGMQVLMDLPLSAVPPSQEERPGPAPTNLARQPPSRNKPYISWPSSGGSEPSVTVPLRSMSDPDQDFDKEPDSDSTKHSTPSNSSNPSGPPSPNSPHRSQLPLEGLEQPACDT
T8 sequence (P19784 whole entry): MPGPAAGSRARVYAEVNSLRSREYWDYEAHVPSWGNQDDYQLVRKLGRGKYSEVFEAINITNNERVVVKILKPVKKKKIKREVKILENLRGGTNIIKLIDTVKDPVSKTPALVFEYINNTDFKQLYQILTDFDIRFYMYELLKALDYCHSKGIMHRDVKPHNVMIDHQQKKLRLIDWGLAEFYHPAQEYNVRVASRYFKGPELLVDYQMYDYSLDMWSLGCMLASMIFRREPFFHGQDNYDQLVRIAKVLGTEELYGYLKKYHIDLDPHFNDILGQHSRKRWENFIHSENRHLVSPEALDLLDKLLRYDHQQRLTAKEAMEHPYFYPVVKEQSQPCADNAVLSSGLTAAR
T9 sequence (Q13882 whole entry): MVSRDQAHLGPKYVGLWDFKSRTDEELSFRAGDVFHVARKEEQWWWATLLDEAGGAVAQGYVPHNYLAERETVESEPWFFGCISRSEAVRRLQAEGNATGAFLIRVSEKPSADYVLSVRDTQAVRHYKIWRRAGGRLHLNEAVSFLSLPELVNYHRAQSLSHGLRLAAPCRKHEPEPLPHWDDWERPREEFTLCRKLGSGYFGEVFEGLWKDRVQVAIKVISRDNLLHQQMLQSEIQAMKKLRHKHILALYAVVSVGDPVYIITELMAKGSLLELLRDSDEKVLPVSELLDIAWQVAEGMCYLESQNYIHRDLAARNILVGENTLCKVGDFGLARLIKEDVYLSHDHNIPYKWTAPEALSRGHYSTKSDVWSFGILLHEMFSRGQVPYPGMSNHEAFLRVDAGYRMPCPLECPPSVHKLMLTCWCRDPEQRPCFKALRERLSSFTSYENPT
T12 sequence (P36507 whole entry): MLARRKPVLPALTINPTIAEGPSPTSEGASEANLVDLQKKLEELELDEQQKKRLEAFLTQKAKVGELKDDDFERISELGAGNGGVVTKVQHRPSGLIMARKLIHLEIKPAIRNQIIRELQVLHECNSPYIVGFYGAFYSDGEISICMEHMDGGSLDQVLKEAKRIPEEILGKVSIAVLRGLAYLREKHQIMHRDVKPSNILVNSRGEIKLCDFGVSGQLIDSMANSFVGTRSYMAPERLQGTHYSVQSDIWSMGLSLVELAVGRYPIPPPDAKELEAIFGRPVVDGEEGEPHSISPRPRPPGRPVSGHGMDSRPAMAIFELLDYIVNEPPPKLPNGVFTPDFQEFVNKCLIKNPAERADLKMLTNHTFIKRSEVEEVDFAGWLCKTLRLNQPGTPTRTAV

Regarding `Cc1sc(C(=O)NC2COC2)cc1-n1cc(NC(=O)Nc2c(F)cccc2Cl)cn1` [Compound 27, 4-(4-(3-(2-chloro-6-fluorophenyl)ureido)-1H-pyrazol-1-yl)-5-methyl-N-(oxetan-3-yl)thiophene-2-carboxamide], the remaining activity at 10 µM in [1] (setting [13]) is 105%; in assay [1] (setting [14]) it was 92.7%; in assay [1] (setting [15]) it was 100%; in [2] (10 uM) it was 93%; in assay [3] (10 uM), 96.5%; in assay [4] (10 uM), 93.3%. Moreover, the remaining activity at 10 µM is 93.7% in assay [5] (10 uM); 90.8% in assay [6] (10 uM); 112% in assay [7] (10 uM); 95.5% in [8] (10 uM); 78.9% in assay [9] (10 uM); 100% in assay [10] (10 uM). Also, the results for the remaining activity at 10 µM in [11] (10 uM) and in assay [12] (10 uM) were 81% and 99.5%, respectively.

In the case of `O=C(Nc1cnn(-c2csc(C(=O)NC3COC3)c2)c1)Nc1c(F)cccc1Cl` [Compound 25, 4-(4-(3-(2-chloro-6-fluorophenyl)ureido)-1H-pyrazol-1-yl)-N-(oxetan-3-yl)thiophene-2-carboxamide], the remaining activity at 5 µM in assay [1] (setting [13]) is 86.3%; in assay [1] (setting [14]), 105%; in assay [1] (setting [15]), 98.4%; in assay [2], 133%; in assay [3], 129%; in assay [4] it was 88.2%. Further, the remaining activity at 5 µM in [5] came out at 87.8%; in assay [6], 94.3%; in assay [7], 89%; in [8], 96.6%; in [9], 85.7%; in assay [10], 90.1%. The values for the remaining activity at 5 µM in assay [11] and in assay [12] were 87.8% and 90.6%, respectively.

Consider `O=C(Nc1cnn(-c2csc(C(=O)NC3COC3)c2)c1)Nc1ccccc1Cl` [Compound 17, 4-(4-(3-(2-chlorophenyl)ureido)-1H-pyrazol-1-yl)-N-(oxetan-3-yl)thiophene-2-carboxamide], for which the remaining activity at 5 µM in [1] (setting [13]) was determined as 95.5%; in assay [1] (setting [14]) it was 92.6%; in assay [1] (setting [15]), 94.7%; in [2], 113%; in [3], 96.4%; in assay [4], 101%. The remaining activity at 5 µM in [5] was determined as 99.3%; in assay [6] it was 98.5%; in assay [7], 97.1%; in assay [8] it was 97.3%; in assay [9], 118%; in assay [10], 103%. The figures for the remaining activity at 5 µM in assay [11] and in assay [12] were 100% and 92.2%, respectively.
